We go through 4 molecules from patent publication US20230013227A1, “ARYL-ANILINE AND HETEROARYL-ANILINE COMPOUNDS FOR TREATMENT OF BIRTHMARKS” (NFlection Therapeutics, Inc., priority 2018, published 2023).

Read-outs that look alike come from different tables or passages of the source. Where only a bound is given, the exact number is not on record here.

The conditions of data set [1]: systemic exposure, background statement; cited from earlier work.
The test system of another data set is p-ERK. Briefly: Human birthmark explant protocol (Example 1): p-ERK in nevus sebaceous explants. As to conditions: topical gel. Type of data set: cell-based. From the text: Study Objectives: The primary objective was to assess the efficacy of a topically-formulated compound described herein in suppressing p-ERK, a downstream biomarker of RAS/MAPK signaling in epidermal nevus and nevus sebaceous. The secondary objectives was to assess permeability (where the compound was applied topically) in birthmark explants treated with a compound described herein.
Sample Collection and Eligibility: Discarded human birthmark (epidermal nevus and nevus sebaceous) samples were obtained from the Stanford Surgery Clinic, using an approved human subjects protocol (Stanford IRB #18325). Specimens were identified under the direction of the Principal Investigator and placed in cell proliferation media (DMEM/F12 containing penicillin/streptomycin (0.1%); fungizone (40 μg/mL); B27 (without vitamin A).
Samples were primary, untreated birthmarks of at least 6 mm in size; samples were excised by a shave, punch biopsy or elliptical excision. Specimens were identified under the direction of the Principal Investigator. Specimens were chopped into 2 mm fragments and placed in 24-well plates containing cell proliferation media (DMEM/F12 containing penicillin/streptomycin (0.1%); fungizone (40 μg/mL); B27 (without vitamin A) and submerged in media with drug. For topical gel application, samples were placed in 96 well plates with epidermal surface exposed to air.
For the data provided in FIGS. 3 and 4, a gel topical gel formulation of Trametinib, Compound No. 2.003, Compound No. 4.029, or the gel topical formulation of vehicle only were topically applied to the surface of a birthmark explant at 4 hours for analysis. The gel formulation was 1% hydroxypropyl cellulose in DMSO/PEG 400 1:1 (v/v) and the tested compound was 1% by weight in the gel formulation. Samples were harvested at 4 hours for analysis. Harvested tissue was bisected and with half snap frozen and half fixed in 10% formalin and paraffin embedded for further analysis.
For the data provided in FIG. 5, a gelled topical gel formulation of Compound 2.003 or the gel topical formulation of vehicle only were topically applied to the surface of a birthmark explant at 4 hours for analysis. The gel formulation was 1.5% hydroxypropyl cellulose in the base formulation and the tested compound was 0.01% by weight of the base formulation. The Compositions of the base formulation are listed below. Samples were harvested at 4 hours for analysis. Harvested tissue was bisected and with half snap frozen and half fixed in 10% formalin and paraffin embedded for further analysis.
For the data provided in FIG. 6, three gelled topical gel formulations of Compound 2.003 at different concentrations or the gel topical formulation of vehicle only were topically applied to the surface of a birthmark explant at 4 hours for analysis. […]

The target in a further data set is T1, MAP2K1 (MEK1) (Homo sapiens, UniProt Q02750).
T1 construct: purchased ThermoFisher
T1 sequence (Q02750 whole entry): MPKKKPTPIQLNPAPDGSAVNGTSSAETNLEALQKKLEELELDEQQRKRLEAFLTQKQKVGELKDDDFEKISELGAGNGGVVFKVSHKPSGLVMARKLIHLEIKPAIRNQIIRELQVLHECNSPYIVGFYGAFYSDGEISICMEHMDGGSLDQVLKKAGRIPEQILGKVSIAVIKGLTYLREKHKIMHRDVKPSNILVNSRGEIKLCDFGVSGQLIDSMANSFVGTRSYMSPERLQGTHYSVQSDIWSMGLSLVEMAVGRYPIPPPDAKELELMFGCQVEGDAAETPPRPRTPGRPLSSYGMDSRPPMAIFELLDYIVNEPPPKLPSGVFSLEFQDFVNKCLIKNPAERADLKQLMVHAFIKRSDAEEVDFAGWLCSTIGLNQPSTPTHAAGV
Briefly: MEK Inhibition Assay-2 (Example 3): Z'-LYTE biochemical assay. The note with it: Table 6; procedure of Example 3; read-out: IC50 against MEK1. The method, then:
MEK1 inhibitory activity of compounds were tested using the following procedure (protocol available at thermofisher.com/content/dam/LifeTech/migration/files/drug-discovery/pdfs.par.60256.file.dat/20130430%20ssbk%20customer%20protocol%20and%20assay%20conditions.pdf). The Z′-LYTE biochemical assay (ThermoFisher) employs a fluorescence-based, coupled-enzyme format and is based on the differential sensitivity of phosphorylated and non-phosphorylated peptides to proteolytic cleavage.
Test compounds in 100% DMSO were screened in 1% DMSO (final) in the well. For 10 point titrations, 3-fold serial dilutions are conducted from the starting concentration of 30 μM.
After the 1 hour incubation, 5 μL of a 1:1024 dilution of Development Reagent A (available from Invitrogen, catalog no. PV3295) was added.
ATP solutions were diluted to a 4× working concentration in Kinase Buffer (50 mM HEPES pH 7.5, 0.01% BRIJ-35, 10 mM MgCl2, 1 mM EGTA). ATP Km apparent was previously determined using a Z′-LYTE assay. The Development Reagent was diluted in Development Buffer (available from Invitrogen, catalog no. P3127).
Assay Protocol: 2.5 μL of 4× test compound or 100 nL of 100× Test Compound plus 2.4 μL Kinase Buffer, 5 μL of the 2× Peptide/Kinase Mixture, 2.5 μL of 4×ATP Solution were added to the plates and placed on a shake plate for 30-seconds. The kinase reaction was allowed to proceed for 60-minute at room temperature, before 5 μL of Development Reagent Solution was added, and the mixture agitated for 30-seconds on a shake plate. The mixture was incubated for 60-minute at room temperature. Fluorescence was measured using a plate reader and the data were analyzed.
This control yielded 100% cleaved peptide in the Development Reaction. The 100% Phosphorylation Control, which consisted of a synthetically phosphorylated peptide of the same sequence as the peptide substrate, was designed to allow for the calculation of percent phosphorylation. This control yielded a very low percentage of cleaved peptide in the Development Reaction. The 0% Phosphorylation and 100% Phosphorylation Controls allow for the calculation of the percent phosphorylation achieved in a specific reaction well.
The minimum emission ratio in a screen was established by the 0% Inhibition Control, which contained active kinase. This control was designed to produce a 10-50% phosphorylated peptide in the Kinase Reaction. Cascade assays may produce up to 70% phosphorylated peptide.
A known inhibitor control standard curve, 10 point titration, was run for each individual kinase on the same plate as the kinase to ensure the kinase was inhibited within an expected IC50 range previously determined.
The following controls are prepared for each concentration of Test Compound assayed. […] The expected value for a non-interfering compound should be 100%. Any value outside of 90% to 110% was flagged. […] The expected value for a non-fluorescence compound should be 0%. Any value >20% was flagged.
The data in Table A was calculated. XLfit from IDBS was used. The dose response curve was curve fit to model number 205 (sigmoidal dose-response model).

Another data set deals with T2, MEK1 (Homo sapiens, UniProt Q02750).
T2 construct: N-terminal His-tagged recombinant human full length protein; purchased Invitrogen PV3303; host or cells: insect cells
T2 sequence (Q02750 whole entry): as above
In words: MEK Inhibition Assay-1 (Example 2): 33P-ATP, P81 filter-binding kinase assay. The note with it: read-out: Assay 1: biochemical MEK IC50. The method, then:
The following procedure can be used to measure biochemical activity. MEK1 inhibitory activity of compounds were tested using the following procedure. […] Nat Biotechnoi 2011, 29(11), 1039-45.
• Reaction buffer: 20 mM Hepes (pH 7.5), 10 mM MgCl2, 1 mM EGTA, 0.02% Brij35, 0.02 mg/mL BSA, 0.1 mM Na3VO4, 2 mM DTT, 1% DMSO • Enzyme: MEK1, Invitrogen cat #PV3303 • N-terminal His-tagged recombinant human full length protein, expressed in insect cells. Activated in vitro by RAF1. MW=49.2 kDa, GenBank Accession No. NP_002746. • Substrate: 5 μM ERK2 (K52R), • Kinase-dead mutant, (GenBank Accession No. NM_0011949), aa2-358 with N-terminal His6 tag, MW=43.63 kDa, expressed in E. coli.
The substrate was prepared in freshly prepared Reaction Buffer. The kinase was delivered into the substrate solution and gently mixed. Test compounds were delivered in 100% DMSO into the kinase reaction mixture by Acoustic technology (Echo550; nanoliter range), and incubated for 20 min at room temperature. ^33P-ATP was delivered into the reaction mixture to initiate the reaction. The reaction mixture was incubated for 2 hours at room temperature. Kinase activity was detected by P81 filter-binding method.

The next data set deals with A375 cells. In words: Cell-Based Assay-2 (Example 5): Cell Titer-Glo viability, A375 (BRAF) GI50. The note with it: Homo sapiens, A-375; Table 8, compounds of formula (II); 72 hours. How it is done:
(§1) Alternatively, the following procedure can be used to measure cell-based activity. Test compounds were dissolved in DMSO in 10 mM stock. Cell Titer-Glo® 2.0 Luminescent cell viability assay reagent was purchased from Promega (Madison, Wis.). A375 and HCT116 cell lines were purchased from American Type Culture Collection (Manassas, Va.). For A375 cells, cell culture media was DMEM+10% FBS. For HCT116 cells, cell culture media was McCoy's 5A+10% FBS. All media were supplemented with 100 μg/mL of penicillin, and 100 μg/mL of streptomycin. Cultures were maintained at 37° C. in a humidified atmosphere of 5% CO2 and 95% air.
(§2) Test compounds were diluted in DMSO solution with 10-dose and 3-fold dilutions in a source plate starting at 10 mM. […] Luminescence was recorded by Envision 2104 Multilabel Reader (PerkinElmer, Santa Clara, Calif.). The number of viable cells in culture was determined based on quantitation of the ATP present in each culture well. […] Luminescence was recorded by Envision 2104 Multilabel Reader (PerkinElmer, Santa Clara, Calif.). The number of viable cells in culture was determined based on quantitation of the ATP present in each culture well. […] All parameters in the equation were calculated by GraphPad Prism 4 program. […] Accordingly, GI50 is the value of 10^X, where X was calculated by the Curve Fitting Equation when Y=50 using Excel.

Another data set deals with HCT116 cells. In words: Cell-Based Assay-2 (Example 5): Cell Titer-Glo viability, HCT116 (Kras) GI50. The note with it: Homo sapiens, HCT-116; Table 8, compounds of formula (II); 72 hours; read-out: Assay 3: HCT116 (Kras) GI50. The method, then: as §1, §2
In general terms: In ATP-based viability assays light output follows the ATP content of the culture.

The mark [2] stands for this setting: FIGS. 3 and 4, 1% by weight compound, 1% hydroxypropyl cellulose in DMSO/PEG 400 1:1, 4 hours.

A word on the IC50: it is the concentration at which inhibition is half-maximal. One may read the GI50 as the concentration that inhibits growth by half.

In the case of `O=C(NOC[C@H](O)CO)c1ccc(F)c(F)c1Nc1ccc(I)cc1F` [PD0325901], in data set [1], the “side effects of a clinically-tested MEK inhibitor” value was “neurological side effects associated with ataxia, confusion, and syncope”.
In the case of `O=C1CCCc2c1sc(Nc1ccc(I)cc1F)c2C(=O)NOCCO` [Compound 4.029], the “suppression of p-ERK in human nevus sebaceous explants” value in the data set with p-ERK (setting [2]) is on record as “suppression of p-ERK”. The IC50 on MAP2K1 (MEK1) was ≤ 150 nM; at MEK1 (Table 10, compounds of formula (IV), Example 2), ≤ 500 nM.
For `Cn1c(Nc2ccc(I)cc2F)c(C(=O)NOC[C@@H](O)CO)c2cccnc21` [Compound 2.006], the results for the GI50 in the data set with A375 cells and in the data set with HCT116 cells were 81 nM and 448 nM, respectively. Moreover, the IC50 on MEK1 (Table 8, compounds of formula (II), tested by Example 2) is 371 nM.
Turning to `Cn1c(Nc2ccc(I)cc2F)c(C(=O)NOCCO)c2cccnc21` [Compound 2.003], the “suppression of p-ERK in human nevus sebaceous explants” value with p-ERK (FIG. 5, 0.01% by weight compound, 1.5% hydroxypropyl cellulose in base formulation, 4 hours) is “suppression of p-ERK”; with p-ERK (setting [2]), “suppression of p-ERK”. Besides, the “dose response in suppression of p-ERK in human nevus sebaceous explants” value in the data set with p-ERK (FIG. 6, 0.01%, 0.15% or 1.00% by weight compound, 4 hours) is reported as “dose response”.
